From US12496297B1, “Compositions of autophagy modulating agents and uses thereof” (Washington University, priority 2020, dated 2025)
Like-named read-outs stand apart in the source and are kept apart here.

Columns and labels:
[1] = tested on: α1-antitrypsin Z variant (ATZ); test: Steady state levels of ATZ in HTO/Z cell line (immunoblot); activity of G2 analogs; format: cell-based, human; conditions: for Activity: G2 and G2 analogs, positive activity if shown to have any activity, not quantified
Experimental: For experiments with G2 analogs, Tet-off inducible cell lines were cultured in absence of doxycycline for at least 12 days to ensure expression of […] or its variants. The cells were then sub-cultured into separate monolayers in fresh complete growth medium and incubated for 48 hours in the absence or presence of G2 analog. […] All compounds available commercially were purchased except for G2-22, which was synthesized with routine chemistry.
Cells were lysed in NP40 buffer and then separated into insoluble and soluble fractions according to a previously established technique. Samples were subjected to immunoblot analysis for AT and GAPDH. For immmunoblot analysis to detect AT or GAPDH, cells were lysed in 50 mM Tris-HCl, 150 mM NaCl, 1% NP-40, pH 8.0. Protein concentrations were determined by BCA protein assay (Pierce Biotechnology, Rockford, IL). […] The membranes were blocked in 5% milk and then incubated overnight at 4° C. with primary antibody for AT (1:1000, Diasorin), LC3 (1:2000, Sigma), p62 (1:1000, Cell signaling, Danvers, MA), ATG5 (1:1000, Cell signaling), mTOR substrate sampler (1:1000 for all antibodies, Cell signaling). Donkey anti-goat Ig (Jackson Labs, Bar Harbor, ME), goat anti-rabbit lg (1:50,000), or goat anti-mouse Ig (1:50,000) were used as secondary antibodies in TBST at RT, 1 hour. Blots were visualized with ECL or West Femto from Pierce. Membranes were re-probed with GAPDH (1:5000, Sigma) as loading control. Insoluble samples were stained with Gel Code Blue as loading control.

[2] = tested on: PiZ mouse model of ATD; test: PiZ mouse model of ATD, oral gavage; format: in vivo
Experimental: The PiZ mouse model has been described previously (Hidvegi 2010 Science 329 (5988): 229-232). For experiments involving drug administration in mice in vivo, doses of 5-50 mg/kg/day for the G2 analog were given for 3 weeks, and then liver histological and biochemical characteristics were assessed exactly as previously described (Hidvegi 2005J Biol Chem 280 (47): 39002-39015). Each experimental group contained 4-6 four- to six-month old male mice randomly chosen from littermates. G2 analogs were delivered by oral gavage. Control mice were littermates given DMSO by gavage. The outcome was determined by evaluating 1) the hepatic ATZ load by immunoblotting with anti-AT, immunostaining with PAS/D; 2) hepatic fibrosis using Sirius Red staining; 3) autophagy by immunoblotting with anti-LC3 and anti-p62, and imaging for GFP+autophagosomes; 4) monitoring blood glucose levels by glucometer and blood insulin levels by ELISA Wide Range Assay (CrystalChem). For immunostaining, liver samples were fixed in 10% Formalin, followed by staining with PAS after diastase and Sirius Red using standard techniques. Quantitative evaluation of immunostaining and histochemical staining was carried out by a member of the team that was blinded to group allocation. Blood glucose and insulin levels were quantified as previously described (Wang 2019 PLOS One 14: e0209748).
For immunoblot analysis of proteins in liver, the liver was snap frozen in liquid nitrogen and stored at −80° C. Liver was homogenized in 50 mM Tris-HCl pH 8.0, 150 mM NaCl, 2 mM KCl, 2 mM MgCl2, 0.5% Triton X-100, 0.5% deoxycholic acid containing 0.1 mM […] and Complete protease inhibitor cocktail from Roche. Total protein concentration was measured by BCA assay (Pierce) and followed by western blotting as described previously.

[3] = tested on: misfolded ATZ; conditions: mammalian cell models of ATD; previously shown; cited from earlier work
[4] = tested on: C. elegans model of ATD (sGFP::ATZ); test: Quantification of ATZ accumulation in C. elegans model of ATD (Z worm); format: in vivo; conditions: GB administered to ATD C. elegans model
Experimental: The C. elegans strain VK1882 (vkls1882 [nhx-2p::sGFP::ATZ; myo-2p::mCherry) was routinely cultured at 20° C. on nematode growth medium plates seeded with E. coli strain OP50. Quantitative analysis of ATZ accumulation was carried out by detection of fluorescence using the Thermofisher CellInsight CX-7 high content imager as previously described. L4 stage animals were placed into wells of 384-well plates (30 per well) containing G2 analogs or an equivalent volume of DMSO. Following incubation at 20° C. for 24 hours, sodium azide was added to a final concentration of […] to anesthetize the animals and then each well was imaged on the CX-7 high content imager for quantification.

[5] = tested on: misfolded ATZ; test: Autophagic degradation of ATZ in mammalian cell line model of ATD; format: cell-based; conditions: effect blocked when autophagy gene ATG14 was deleted
[6] = tested on: HTT inclusion bodies (IBs) in HD-MSNs; test: HTT inclusion bodies / mHTT aggregation in HD-MSNs; format: cell-based, human; conditions: HD-MSNs from three patients, 0.5 μM vs DMSO, PID30, FIG. 18K
Experimental: Adult dermal fibroblasts from symptomatic HD patients (Coriell NINDS and NIGMS Repositories: ND33947, ND30013, GM02173, GM04230, GM04198, GM02147), presymptomatic HD patients (GM04717, GM04861, GM04855, GM04831, GM04857, GM04829), and healthy controls (GM02171) were acquired from the Coriell Institute for Medical Research. The lentiviral cocktail of rtTA, pTight-9-124-BclxL, CTIP2, MYT1L, DLX1, and DLX2 was added to human fibroblasts for 16 h, then cells were washed and fed with fibroblasts media containing 1 μg/mL doxycycline (DOX). Briefly, transduced fibroblasts were maintained in fibroblasts media for two days with doxycycline before selection with Puromycin ([…]) on day 3, then were plated onto poly-ornithine, fibronectin, and laminin-coated coverslips on day 5. Cells were subsequently maintained in NeurobasalA (Gibco) media containing B-27 plus supplement and GlutaMAX supplemented with valproic acid (1 mM), dibutyryl cAMP ([…]), BDNF (10 ng/ml), NT-3 (10 ng/ml), and RA ([…]) until day 13. […]
Reprogramming cells were fixed with 4% paraformaldehyde (Electron Microscopy Sciences, #15710) for 20 min at room temperature (RT), and then permeabilized with 0.2% Triton X-100 for 10 min at RT. […] Images were captured using a Leica SP5X white light laser confocal system with Leica Application Suite (LAS) Advanced Fluorescence 2.7.3.9723.

[7] = tested on: HD-MSNs; test: Autophagy measurement in HD-MSNs (p62 immunoblot, CYTO-ID green); format: cell-based, human; conditions: 0.5 μM vs DMSO
Experimental: To test whether the differentially expressed genetic pathways between pre-HD-MSNs and HD-MSNs would be reflected at the cellular level, whether the autophagy activity would be different between pre-HD- and HD-MSNs was assessed. CYTO-ID assay, a fluorescence-based live-cell assay for accumulated autophagic vacuoles was performed as well as immunoblot for p62/SQSTM1 expression, a marker used to monitor autophagic activity due to its binding to LC3 and degradation by autophagy.
(§1) Adult dermal fibroblasts from symptomatic HD patients (Coriell NINDS and NIGMS Repositories: ND33947, ND30013, GM02173, GM04230, GM04198, GM02147), presymptomatic HD patients (GM04717, GM04861, GM04855, GM04831, GM04857, GM04829), and healthy controls (GM02171) were acquired from the Coriell Institute for Medical Research. The lentiviral cocktail of rtTA, pTight-9-124-BclxL, CTIP2, MYT1L, DLX1, and DLX2 was added to human fibroblasts for 16 h, then cells were washed and fed with fibroblasts media containing 1 μg/mL doxycycline (DOX). […]
Cells were lysed in a 2% SDS buffer. The concentrations of whole-cell lysates were measured using the Pierce BCA protein assay kit (Thermo Scientific, #23227). […]

[8] = tested on: HD-MSNs; test: Neuronal cell death assay in HD-MSNs (SYTOX, Caspase-3/7, Annexin V); format: cell-based, human
Experimental: as §1
0.1 μM SYTOX gene nucleic acid stain (Invitrogen, S7020) and 1 μl/mL of Hoeschst 33342 (Thermo Scientific, 66249) were added into cell medium. […] Images were taken using Leica DMI 4000B inverted microscope with Leica Application Suite (LAS) Advanced Fluorescence.
Cells were treated with 1× Essen Bioscience IncuCyte® Caspase-3/7 Green Reagent (final concentration 5 µM) and 1× Essen Bioscience IncuCyte® Annexin V Green or Red Reagent on day 22 or 26. […] Images were analyzed for the number of green or red objects per well. For the apoptotic index, the number of green or red objects (i.n., fluorescence cells) divided by phase area (μm2) per well was quantified by the IncuCyte® S3 Live-Cell Analysis System.

[9] = tested on: α1-antitrypsin Z variant (ATZ); test: Steady state levels of ATZ in HTO/Z cell line (immunoblot); activity of G2 analogs; format: cell-based, human; conditions: 24 hr treatment, 0.5 and 2.5 μM, FIG. 22C
[10] = PiZ mouse, marker of autophagic activity

Row | Structure (SMILES) | Activity [1] | hepatic ATZ load ([2]; PiZ mouse) | insulin secretion ([2]; PiZ mouse) | LC3-II conversion in the liver [2, 10] | p62 levels in the liver [2, 10] | hepatic / liver fibrosis (Sirius Red staining) ([2]; PiZ mouse, G2-19: 3 weeks of treatment vs placebo) | liver damage ([2]; mouse model of ATD) | autophagic degradation of misfolded ATZ [3] | accumulation of misfolded, aggregated ATZ [4] | autophagic degradation of misfolded ATZ [5] | IC50 ([1]; TABLE 1, assay not given) | mHTT aggregation [6] | p62/SQSTM1 protein levels (immunoblot) ([7]; PID26, FIG. 18F) | CYTO-ID signal (autophagic vacuoles) ([7]; PID 26, FIG. 18G) | MSN death by Caspase 3/7 activation and Annexin V signals ([8]; HD.40-MSNs three concentrations PID 30 (FIG. 18I), three patients 0.5 μM (FIG. 18J)) | MSN death measured by SYTOX ([8]; HD.44-MSNs, 0.125, 0.25, or 0.5 µM, PID 35, FIG. 18H) | steady-state levels of ATZ [9]
1 | COc1ccc(Cl)cc1C(N)=O [G2, 5-chloro-2-methoxybenzamide] | Active | significant reduction of hepatic ATZ load | without affecting insulin secretion | increased LC3-II conversion | decreased p62 levels | significant reduction | reverse liver damage | promoted autophagic degradation |  |  |  |  |  |  |  |  | 
2 | COc1ccc(Cl)cc1C(=O)NCCc1ccc(S(=O)(=O)NC(=O)NC2CCCCC2)cc1 [GB, 5-chloro-N-(4-(N-(cyclohexylcarbamoyl)sulfamoyl)phenethyl)-2-methoxybenzamide, reference compound] |  |  |  |  |  |  |  |  | reduced accumulation of misfolded, aggregated ATZ | enhances the autophagic degradation of misfolded ATZ |  |  |  |  |  |  | 
3 | O=c1ccc2c(Cl)cc(Cl)cc2[nH]1 [G2-115, 5,7-dichloroquinolin-2(1H)-one] | Active |  |  |  |  |  |  |  |  |  | 100 to 1000 nM | significantly lower levels of mHTT aggregation | decrease in p62/SQSTM1 protein levels | increase in CYTO-ID signal | significant reduction in MSN death in a dose-dependent manner | significant reduction in MSN death in a dose-dependent manner | decreased the steady-state levels of ATZ
